Results published in patent publication US8691760B2, “Peptides, pharmaceutical compositions comprising same and uses thereof” (priority 2009, dated 2014).
Several values for one entry are separate records, joined by “and”; a condition that tells them apart may be missing. Identical values can stand only once. Entries after “also recorded” stand apart in the source; their conditions may differ. Like-named read-outs stand apart in the source and are kept apart here. Ends that are not written are not given here. Peptide text beside a SMILES is read from it.

Experiments:
[1] = molecular target: T1, rat recombinant IDE (Rattus norvegicus, UniProt P35559); assay: Fluorometric IDE activity assay (InnoZyme Insulysin/IDE Immunocapture Activity Assay Kit, FRET substrate); type: biochemical; conditions: 16 hours at 37° C.; for IC50: 3 repeated experiments
T1 construct: purchased Calbiochem (InnoZyme Insulysin/IDE Immunocapture Activity Assay Kit) CBA079
Experimental: For example, one method that may be used (as described in detail in Example 2, of the Examples section which follows) comprises the use of Insulysin/IDE Immunocapture Activity Assay Kit (available e.g. from InnoZyme™, Calbiochem). Using this kit ELISA plates are first coated with the target enzyme (i.e. IDE) and then the plates are incubated with the synthesized peptide. The enzymatic activity is measured in comparison to wells without the peptide using for example a FRET substrate, Mca-[…]-EDDnp (SEQ ID NO: 11). Cleavage of the scissile amide bond between R and K releases the fluorophore from the quenching molecule, Dnp, resulting in an increase in fluorescence. The increase in fluorescence is measured using an excitation wavelength of 320 nm and an emission wavelength of 405 nm.
In order to measure IDE activity, coating of ELISA plates with the target enzyme (i.e. IDE) was carried out. Next, plates were incubated with the selected synthesized peptide candidate and the enzymatic activity was measured as compared to wells without the peptide candidate. This was carried out using InnoZyme™ Insulysin/IDE Immunocapture Activity Assay Kit from Calbiochem (worldwidewebdotmerckbiosciencesdotcom/Products/pdsdotaspquestionmarkcatnoequal CBA079), a specific and sensitive assay for measuring active IDE in cell lysates, tissue extracts and biological fluids.
Peptide ability to inhibit IDE activity was measured using InnoZyme™ Insulysin/IDE Immunocapture activity assay kit (Calbiochem), an affinity purified polyclonal antibody that recognized human, mouse, and rat insulysin, immobilized on a 96-well plate to capture the enzyme. In brief, rat recombinant IDE (1.14 nM) was incubated with increasing amounts of the candidate inhibitors with doses ranging from 1-100 μM for 16 hours at 37° C. and the activity of captured IDE was measured using a FRET substrate, Mca-[…]-EDDnp (SEQ ID NO: 11). Cleavage of the scissile amide bond between R and K released the fluorophore from the quenching molecule, Dnp, resulting in an increase in fluorescence. The increase in fluorescence was measured using an excitation wavelength of 320 nm and an emission wavelength of 405 nm. As a control, the kit used rat recombinant IDE. IC50 were evaluated following three repeated experiments.
Specifically, rat recombinant IDE (1.14 nM) was incubated with different doses of ADT-21 ([…]) for 16 hours at 37° C. and the activity of the captured insulysin (IDE) was measured using a FRET substrate, Mca-[…]-EDDnp (SEQ ID NO: 11) using Florolog with the following parameters Ex=320 nm, Gm=405 nm, Slit=2, Maximum trails=10, Integration time=1, Target standard deviation=1%.

[2] = molecular target: IDE (Rattus norvegicus, UniProt P35559); assay: In vitro insulin degradation assay (bovine insulin + IDE, insulin ELISA); type: biochemical; conditions: ADT21 0.2 nM; insulin 0.87 nM, IDE 1.14 nM, 16 hours at 37° C.
Experimental: Insulin (0.87 nM) isolated from bovine pancreas (SIGMA) was incubated for 16 hours at 37° C. in the presence or absence of IDE (1.14 nM) together with the inhibitors (0.002-0.2 nM). The levels of insulin degradation were analyzed using mouse insulin ELISA kit (Mercodia).
In order to verify that ADT21 reduces degradation of insulin by IDE, inventors incubated bovine insulin for 16 hours at 37° C. with or without IDE (1.14 nM) along with ADT21. The levels of insulin degradation were analyzed using a mouse insulin ELISA kit (as described in the “materials and experimental procedures” section above). […] Therefore, inventors speculated that the use of this inhibitor in vivo would delay insulin degradation without preventing IDE activity.

[3] = system: NOD mice; assay: NOD mouse model of insulin dependent diabetes mellitus, nasal administration, blood glucose / diabetes onset; type: in vivo
Source text: (§1) A NOD mouse model has been used as previously described as a model for insulin dependent diabetes mellitus (IDDM) [Atkinson et al., (1990) Diabetes 39, 933-937]. Diabetes in NOD (NOD/ShiLtJ) mice is characterized by insulitis and marked decreases in pancreatic insulin content that occurred in females at about 15 weeks of age. The animals were monitored carefully when receiving the different treatments. Onset of diabetes was marked by moderate glycosuria and by non-fasting plasma glucose higher than 250 mg/dl.
(§2) 12 week old NOD mice were divided into two groups of 10-12 mice each, receiving, every other day, nasal administration of 10 μl of the respective peptide (3.76 μg/kg) or control PBS.
Mice were monitored for blood glucose levels weekly using glucose test strip (Elite, BAYER).

[4] = system: NOD mice; assay: Blood insulin levels in NOD mice at 30 weeks (HTRF Insulin assay); type: in vivo, mouse; conditions: serum
Source text: as §1, §2
Mice were monitored for insulin blood levels at 30 week using HTRF® Insulin assay (Cisbio bioassays).

[5] = system: NOD mice; assay: Degree of insulitis, histological analysis of the pancreas of NOD mice; type: in vivo, mouse; conditions: NOD mice at 30 weeks, vs PBS-treated group
Source text: Randomly selected animals from each group (at 30 weeks) were sacrificed and the pancreas of each was examined in a double-blind fashion for insulitis using histological analysis of the pancreas as previously described [Frenkel et al. (2003) J Immunol 171, 6549-6555]. Six to ten islets per mouse were individually scored by two independent observers using a semi-quantitative scale ranging from 0-4 as follows: 0, normal islet with no sign of T cell infiltration; 1, islet associated with perivascular, periductal leukocytic infiltration only; 2, more extensive peri-islet infiltration, but with lymphocytes with less than 25% islet destruction; 3 more than 25% islet destruction; and 4, complete islet destruction.

[6] = system: NOD mice; assay: IGF-1 blood level in NOD mice at 30 weeks (AssayMax mouse IGF1 kit); type: in vivo
Source text: NOD mice were monitored for the blood level of Insulin growth factor 1 (IGF-1) at 30 weeks using AssayMax mouse IGF1 kit.

[7] = system: splenocytes obtained from NOD mice; assay: IFN-γ and IL-17 secretion from splenocytes of ADT21-treated NOD mice (ELISA); type: in vivo, mouse; conditions: splenocytes of treated NOD mice (30 weeks), incubated with insulin 48 hours
Experimental: Splenocytes were obtained from NOD mice at the age of 30 weeks. Splenocytes were obtained from both control and ADT21-treated mice. Splenocytes were cultured in T cell medium buffer and plated at 1×10^6 cells per well with and without bovine insulin (Sigma) for 48 hours as previously described [Frenkel et al. (2003) J Immunol 171, 6549-6555].
(§3) Secretions of IFN-γ and IL-17 were measured in 48 hour cultured supernatants by ELISA. Briefly, 96 well plates were coated overnight with 1.5 μg/ml capture antibody (R&D Systems). Supernatants (as described above) were incubated overnight and detection biotinylated antibody (1 μg/ml, R&D Systems) was added for 1 hour. Plates were covered for 30 minutes with avidin-HRP conjugate and […] was used as a substrate for color development. 1M H2SO4 was used as a stop solution. Plates were measured using an ELISA plate reader at 405 nm.

[8] = system: CD4+ T-cells; assay: Co-culture of CD4+ T-cells of insulin-immunized NOD mice with spleen cells, IFN-γ and IL-17 ELISA; type: cell-based, mouse; conditions: co-culture with 10 μg/ml insulin, with or without 100 nM ADT21, 48 h
Experimental: as §3
NOD mice were immunized subcutaneously (s.c.) with bovine insulin (SIGMA) (n=6-7). 10 days later, CD4+ T-cells were isolated from the spleens of these mice using magnetic beads for negative selection (Miltenyi Biotec). The CD4+ T cells were co-cultured at a concentration of 1×10^6 cells/well in 96-well plates at a ratio of 1:1 with cells obtained from spleens of non immunized NOD mice (n=5). The co-culture was incubated with 10 μg/ml insulin with or without 100 nM ADT21. Supernatants were collect after 48 h of co-culture for cytokine measurements by ELISA for IL-17 and IFN-γ.

[9] = molecular target: IDE (Homo sapiens, UniProt P14735); assay: Blocking of VZV gE interaction with IDE; type: binding; conditions: data not shown
[10] = IC50, rat recombinant IDE 1.14 nM, FRET substrate Mca-GGFLRKHGQ-EDDnp

T1 sequence (P35559 whole entry): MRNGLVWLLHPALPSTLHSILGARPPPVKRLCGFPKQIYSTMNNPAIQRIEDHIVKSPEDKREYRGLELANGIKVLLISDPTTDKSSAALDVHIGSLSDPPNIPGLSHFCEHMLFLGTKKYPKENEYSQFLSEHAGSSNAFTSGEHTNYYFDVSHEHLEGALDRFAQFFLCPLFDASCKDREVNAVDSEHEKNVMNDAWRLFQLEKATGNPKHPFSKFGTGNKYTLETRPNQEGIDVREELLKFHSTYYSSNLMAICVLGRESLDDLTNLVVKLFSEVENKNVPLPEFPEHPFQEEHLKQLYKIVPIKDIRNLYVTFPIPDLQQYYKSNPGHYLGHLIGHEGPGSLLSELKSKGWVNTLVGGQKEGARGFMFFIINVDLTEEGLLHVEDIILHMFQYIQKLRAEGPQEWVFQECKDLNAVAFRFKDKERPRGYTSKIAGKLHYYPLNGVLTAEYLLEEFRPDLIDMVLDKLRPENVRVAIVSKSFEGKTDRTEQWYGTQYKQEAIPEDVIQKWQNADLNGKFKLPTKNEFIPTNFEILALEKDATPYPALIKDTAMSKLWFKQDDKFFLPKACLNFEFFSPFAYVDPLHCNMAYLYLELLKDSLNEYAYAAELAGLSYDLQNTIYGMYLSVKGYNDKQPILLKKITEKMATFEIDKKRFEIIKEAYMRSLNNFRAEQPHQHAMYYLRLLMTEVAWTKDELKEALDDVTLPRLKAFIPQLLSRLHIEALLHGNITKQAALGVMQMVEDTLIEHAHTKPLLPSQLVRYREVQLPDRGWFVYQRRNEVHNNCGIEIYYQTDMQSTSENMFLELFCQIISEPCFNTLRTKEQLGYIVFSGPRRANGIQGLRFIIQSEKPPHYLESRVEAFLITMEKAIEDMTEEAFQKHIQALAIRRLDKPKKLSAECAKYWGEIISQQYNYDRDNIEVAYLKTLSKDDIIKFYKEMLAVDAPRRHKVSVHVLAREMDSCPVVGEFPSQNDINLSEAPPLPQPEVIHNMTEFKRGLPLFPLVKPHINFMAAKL
Sequence of IDE (Rattus norvegicus, UniProt P35559) (P35559 whole entry): as above

Compound: FVNQGSGGSSVLRYDDFHTD [ADT51]
- IC50 [1, 10]: 494 nM

Compound: KCNTGSGGSSVLRYDDFHTD [ADT61]
- IC50 [1, 10]: 824 nM

Compound: HSQGGSGGSSFVQWDDLMN [ADT24]
- IC50 [1, 10]: 175 nM

Compound: DAEFGSGGSSEALYDDLVCG [ADT82]
- IC50 [1, 10]: 438 nM

Compound: EALYDDLVCG [ADT2]
- IC50 [1, 10]: 230 nM

Compound: DAEFGSGGSSKLVFDDFAED [ADT25]
- IC50 [1, 10]: 604 nM

Compound: EALYLVCG [INS, reference compound]
- IC50 [1, 10]: 465 nM

Compound: ITNPGSGGSSVLRYDDFHTD [ADT21]
- IC50 [1, 10]: 100 nM and 10 to 200 nM
- inhibition of IDE activity (in words) ([1]; rat recombinant IDE 1.14 nM): dose dependent and high efficacy in inhibition of IDE activity; also recorded: inhibits IDE activity in a dose dependant manner
- reduction of insulin degradation by IDE [2]: 400%
- age at first conversion to diabetes ([3]; NOD mice treated from 12 weeks, every other day, 3.76 μg/kg (94 ng/day), untreated: 15 weeks): 20 weeks
- behavioral changes that might indicate toxicity (body weight, eating habits, tail tone, mobility) ([3]; NOD mice, every other day): no behavioral changes
- animals remaining disease-free at 30 weeks ([3]; NOD mice, every other day from 12 weeks, 71% of control mice diabetic): 75%
- disease progression (in words) ([3]; NOD mice, every other day, vs PBS, P<0.05): significantly delayed
- blood insulin level relative to reference NOD mice ([4]; printed: compared to sick NOD mice): 62%
- increase in blood insulin ([4]; vs control group): about 400%
- infiltration of T cells in pancreatic islets (insulitis) [5]: significantly less infiltration of T cells
- toxic effect related to IGF1 elevation ([6]; IGF1 below the basal level (about 1000 ng/ml in wild type mice)): no toxic effect was observed
- IGF1 blood level ([6]; NOD mice at 30 weeks, control NOD mice 33 ng/ml): 440 ng/mL
- reduction in the levels of IL-17 [7]: 52%
- release of IFN-γ ([8]; p<0.01): dose dependant reduction
- release of IL-17 ([8]; p<0.05): dose dependant reduction

Compound: VZV gE (24-50): synthetic peptide corresponding to amino acids 24-50 of VZV gE (ITNPVRASVLRYDDFHTDEDKLDTNSV; A peptide sequence derived from VZV gE (24-50))
- blocking of VZV gE interaction with IDE [9]: blocked VZV gE interaction with IDE in a concentration dependent manner

Compound: N[C@@H](CC(=O)O)C(=O)N[C@@H](CC(=O)O)C(=O)O [ADT-31, DD] (H-Asp-Asp-OH)
- IC50 ([1]; rat recombinant IDE 1.14 nM, FRET substrate Mca-[…]-EDDnp, read-out: IC50): 736 nM

Compound: KLVFDDFAED [ADT5, KLVFDDFAED]
- IC50 [1, 10]: 552 nM

Compound: HSQGGSGGSSVLRYDDFHTD [ADT71]
- IC50 [1, 10]: 1390 nM

Compound: ITNPVRASVLRYDDFHTD [VZV, reference compound]
- IC50 [1, 10]: 450 nM

Compound: ITNPGSGGSSEALYDDLVCG [ADT41]
- IC50 [1, 10]: 331 nM

Compound: LANFDDLVHSSNN [ADT3]
- IC50 [1, 10]: 788 nM

Compound: VLRYNNFHTD [ADT5N]
- inhibition of IDE activity (in words) ([1]; rat recombinant IDE 1.14 nM): prevented the inhibition of IDE

Compound: ITNPGSGGSSKLVFDDFAED [ADT44]
- IC50 [1, 10]: 545 nM

Compound: ITNPGSGGSSLANFDDLVHSSNN [ADT42]
- IC50 [1, 10]: 199 nM

Compound: VLRYDDFHTD [ADT1]
- IC50 [1, 10]: 145 nM

Compound: HSQGGSGGSSEALYDDLVCG [ADT72]
- IC50 [1, 10]: 118 nM

Compound: KCNTGSGGSSLANFDDLVHSSNN [ADT23]
- IC50 [1, 10]: 616 nM
